In general, IC50 refers to the concentration needed to halve the response being measured. The low end stands for higher potency, the high end for lower potency.

The structures appear in SMILES notation.

Drawing on BindingDB's records for doi:10.1016/j.bmcl.2007.12.038 (St. Jude Children'S Research Hospital, 2008), this text covers IC50 for three compounds.

Assay [1] can be described thus: Binding affinity to GST tagged human beta 2 adrenergic receptor PDZ1 domain.
The nature of assay [2]: Binding affinity to GST tagged human CFTR PDZ2 domain.

`CCCCC(O)c1[nH]c2cc(C)c(C(=O)O)cc2c1CCc1ccccc1` (stereo unspecified) [2-(1-hydroxypentyl)-6-methyl-3-phenethyl-1H-indole-5-carboxylic acid]: the IC50 in assay [1] is 1540 µM; in assay [2] it was 160 µM.

In the case of `Cc1cc2[nH]c(C(O)CCCC(=O)O)c(CCc3ccccc3)c2cc1C(=O)O` (stereo unspecified) [2-(4-carboxy-1-hydroxybutyl)-6-methyl-3-phenethyl-1H-indole-5-carboxylic acid], the IC50 in assay [1] worked out at 777 µM; in assay [2] it was 330 µM.

Regarding `CCCCCc1c(CO)c2cc(C)c(C(=O)O)cc2n1CCc1ccccc1` [3-(hydroxymethyl)-5-methyl-2-pentyl-1-phenethyl-1H-indole-6-carboxylic acid], the IC50 worked out at 280 µM in assay [1] and 380 µM in assay [2].
